From patent US5478864A, “Method for disinfection using a 1,n-bis(N^5 -trifluoromethyl-phenyl-N^1 -biguanido)-alkane” (Mitsubishi Materials Corp., priority 1991, dated 1995)
Values after ≈ are worked out from the molar mass of the structure shown. Where two headings read alike, the source gives them in different places.

How the values were obtained:
[1] = test system: Pseudomonas aeruginosa IID 1042; experiment: minimum growth inhibition concentration, agar dilution; assay type: cell-based
Protocol: (§1) Germicidal activity of the compound prepared in Example 1 (Compound I) was evaluated by the minimum growth inhibition concentration method (based on the standard method stipulated by Japan Society of Chemotherapy) and the phenol coefficient method.
(§2) A portion of the digluconate salt of the compound of Example 1 was dissolved in water and the solution was heated to dryness on a water bath. The dried salt was dissolved in acetic acid (potentiometric titration grade) and the concentration thereof was determined by potentiometric titration using a perchloric acid solution. The gluconate acid salt solution, whose concentration was thus determined, was diluted to predetermined concentrations with sterilized water. Each 1 ml of the solution of each concentration was placed in a Petri dish, 9 ml of Mueller-Hinton agar (supplied by Difco) was added thereto and well mixed. Thus sensitivity test media were prepared. The concentrations of the compound were 200 μg/ml and 2^n times wherein (n=-8 to 2). Separately, microorganism strains indicated in Table 1 were subcultured in propagation media (using Mueller-Hinton broth supplied by Difco) at 37° C. for 24 hours. The microorganism concentration was adjusted to 10^6 /ml. The thus obtained cultures were respectively inoculated on a series of sensitivity measuring culture media using an inoculation rod. […] The results are shown in Table 1 together with the result on chlorhexidine as a control.
(§3) Compounds of formula I, wherein the trifluoromethyl group is located at the p-position and n is 2, 3, 5, 8 and 11, were prepared starting from ethylene diamine dichloride, 1,3-propane diamine dichloride, 1,5-pentane diamine dichloride, 1,8-octane diamine dichloride or 1,11-undecane diamine dichloride, sodium dicyanamide and 4-trifluoromethyl aniline hydrochloride in accordance with the procedures as described above and minimum growth inhibition concentration (MIC) was determined in the same manner as above.
(§4) Disinfecting effect of the above-prepared compounds was tested by measurement of minimum growth inhibition concentration and by the test for immediate effect in the same manner as in Example 3.
(§5) Compounds of formula I, wherein the trifluoromethyl group is located at the m-position and n is 2, 3, 5 and 8, 11 were prepared starting from ethylene diamine dihydrochloride, 1,3-propane diamine dihydrochloride, 1,5-pentane diamine dihydrochloride, 1,8-octane diamine dihydrochloride or 1,11-undecane diamine dihydrochloride, sodium dicyanamide and 3-trifluoromethylaniline hydrochloride in accordance with the procedures of Example 4 and germicidal activity thereof were determined in the same manner.

[2] = test system: Escherichia coli IID 951; experiment: as above; assay type: cell-based; conditions: IID951, Mueller-Hinton agar, IID 951, read-out: MIC
Protocol: as §1, §2, §3, §4, §5

[3] = test system: Staphylococcus aureus FDA 209-P; experiment: as above; assay type: cell-based; conditions: FDA209, Mueller-Hinton agar
Protocol: as §1, §2, §3, §4, §5

[4] = test system: Serratia marcescens IID 602; experiment: as above; assay type: cell-based; conditions: IID602, Mueller-Hinton agar, IID 602, read-out: MIC
Protocol: as §1, §2, §3, §4, §5

[5] = test system: dental plaque; conditions: Warner et al, 1973; cited from earlier work
[6] = test system: Escherichia coli IID 861; experiment: test for immediate effect (phenol coefficient method); assay type: cell-based; conditions: of three runs, conc. 0.001%, 20° C.
Protocol: Immediate effect of this compound was evaluated in accordance with the phenol coefficient method described in "Directions for Hygienic Tests" compiled by the Ministry of Health and Welfare of Japan. The method is as follows. (1) Culture medium Each 10 ml of the bouillon described below was taken into test tubes and they were sterilized with high pressure steam at 120° C. for 20 minutes. (2) Test method Diluted solutions of a series of concentrations of the sample compound were prepared for each of microorganisms listed in Table 2. Each 10 ml of the solutions was put into an appraisal test tube and the test tubes were placed in a thermostat bath kept at 20° C. Each microorganism was subcultured in the above described bouillon medium for testing disinfectants for three generations (37° C. for 48 hours). Each 1 ml of each culture was placed in each of the above-described series of appraisal test tubes and well mixed. After 2.5, 5, 10 and 15 minutes, 0.1 ml of the content of each appraisal test tube was taken and inoculated onto each portion of the bouillon medium for testing disinfectants. […] Each test was carried out three times. Immediate effect of disinfectants was compared by number of test runs in which microorganism growth was observed. […]

[7] = test system: Alcaligenes faecalis IPO 13111; experiment: minimum growth inhibition concentration, agar dilution; assay type: cell-based; conditions: IPO13111, Mueller-Hinton agar, digluconate
Protocol: as §1, §2, §4

[8] = test system: Achromobacter xylosoxidans RIMD 0101001; experiment: as above; assay type: cell-based; conditions: RIMD0101001, Mueller-Hinton agar, digluconate
Protocol: as §1, §2, §4

[9] = test system: Flavobacterium meningosepticum RIMD 0614002; experiment: as above; assay type: cell-based; conditions: Elizabethkingia meningoseptica, RIMD0614002; Mueller-Hinton agar; digluconate
Protocol: as §1, §2, §4

[10] = test system: Proteus vulgaris IID 874; experiment: as above; assay type: cell-based; conditions: IID874, Mueller-Hinton agar, digluconate
Protocol: as §1, §2, §4

[11] = test system: Pseudomonas aerugimosa (clinically collected); experiment: as above; assay type: cell-based; conditions: Mueller-Hinton agar, digluconate
Protocol: as §1, §2, §4

[12] = test system: Escherichia coli NIHJ JC-2; experiment: as above; assay type: cell-based; conditions: NIHJJC2, Mueller-Hinton agar, digluconate, NIHJ JC-2, read-out: MIC
Protocol: as §1, §2, §4

[13] = test system: Escherichia coli IID 861; experiment: as above; assay type: cell-based; conditions: IID861, Mueller-Hinton agar, digluconate, IID 861, read-out: MIC
Protocol: as §1, §2, §4

[14] = test system: Klebsiella pneumoniae IID 865; experiment: as above; assay type: cell-based; conditions: IID865, Mueller-Hinton agar, digluconate, read-out: MIC
Protocol: as §1, §2, §4

[15] = test system: Pseudomonas cepacia (collected Chiba Univ.); experiment: as above; assay type: cell-based; conditions: Burkholderia cepacia, Mueller-Hinton agar, digluconate
Protocol: as §1, §2, §4

[16] = test system: Staphylococcus epidermis IID 866; experiment: as above; assay type: cell-based; conditions: IID866, Mueller-Hinton agar, digluconate, IID 866, read-out: MIC
Protocol: as §1, §2, §4

[17] = test system: Staphylococcus aureus (clin'ly col'ted MRSA); experiment: minimum growth inhibition concentration, agar dilution (first MRSA line); assay type: cell-based; conditions: Mueller-Hinton agar, digluconate, clinically collected MRSA, first line, read-out: MIC
Protocol: as §1, §2, §4

[18] = test system: Staphylococcus aureus (clin'ly col'ted MRSA); experiment: minimum growth inhibition concentration, agar dilution (second MRSA line); assay type: cell-based; conditions: Mueller-Hinton agar, digluconate, clinically collected MRSA
Protocol: as §1, §2, §4

[19] = Pseudomonas aeruginosa, IID1042, Mueller-Hinton agar, read-out: MIC

Row | MIC [1, 19] [µg/mL] | MIC [2] [µg/mL] | MIC [3] [µg/mL] | MIC [4] [µg/mL] | SMILES | also measured
1 | 12.5 (≈ 22.4 µM) | 3.13 (≈ 5.6 µM) | 0.78 (≈ 1.4 µM) | 6.25 (≈ 11.2 µM) | N=C(NCCCCCNC(=N)NC(=N)Nc1ccc(C(F)(F)F)cc1)NC(=N)Nc1ccc(C(F)(F)F)cc1 [n = 5 (p-position)] | –
2 | 400 (≈ 622 µM) | 50 (≈ 77.8 µM) | 12.5 (≈ 19.4 µM) | 100 (≈ 156 µM) | N=C(NCCCCCCCCCCCNC(=N)NC(=N)Nc1ccc(C(F)(F)F)cc1)NC(=N)Nc1ccc(C(F)(F)F)cc1 [n = 11 (p-position)] | –
3 | 200 (≈ 387 µM) | 12.5 (≈ 24.2 µM) | 12.5 (≈ 24.2 µM) | 50 (≈ 96.8 µM) | N=C(NCCNC(=N)NC(=N)Nc1cccc(C(F)(F)F)c1)NC(=N)Nc1cccc(C(F)(F)F)c1 [n = 2 (m-position)] | –
4 | 50 (≈ 94.3 µM) | 3.13 (≈ 5.9 µM) | 3.13 (≈ 5.9 µM) | 12.5 (≈ 23.6 µM) | N=C(NCCCNC(=N)NC(=N)Nc1cccc(C(F)(F)F)c1)NC(=N)Nc1cccc(C(F)(F)F)c1 [n = 3 (m-position)] | –
5 | – | – | – | – | N=C(NCCCCCCNC(=N)NC(=N)Nc1ccccc1)NC(=N)Nc1ccccc1 [bis-phenyl-substituted derivative] | antiplaque activity [5]: no antiplaque activity
6 | 50 (≈ 94.3 µM) | 1.56 (≈ 2.94 µM) | 0.78 (≈ 1.47 µM) | 6.25 (≈ 11.8 µM) | N=C(NCCCNC(=N)NC(=N)Nc1ccc(C(F)(F)F)cc1)NC(=N)Nc1ccc(C(F)(F)F)cc1 [n = 3 (p-position)] | –
7 | 400 (≈ 622 µM) | 25 (≈ 38.9 µM) | 12.5 (≈ 19.4 µM) | 100 (≈ 156 µM) | N=C(NCCCCCCCCCCCNC(=N)NC(=N)Nc1cccc(C(F)(F)F)c1)NC(=N)Nc1cccc(C(F)(F)F)c1 [n = 11 (m-position)] | –
8 | 25 (≈ 41.6 µM) | 1.56 (≈ 2.6 µM) | 1.56 (≈ 2.6 µM) | 6.25 (≈ 10.4 µM) | N=C(NCCCCCCCCNC(=N)NC(=N)Nc1cccc(C(F)(F)F)c1)NC(=N)Nc1cccc(C(F)(F)F)c1 [n = 8 (m-position)] | –
9 | 25 (≈ 43.7 µM) | 1.56 (≈ 2.72 µM) | 0.78 (≈ 1.36 µM) | 6.25 (≈ 10.9 µM) | N=C(NCCCCCCNC(=N)NC(=N)Nc1cccc(C(F)(F)F)c1)NC(=N)Nc1cccc(C(F)(F)F)c1 [Ex. 5, 1,6-bis(N^5-m-trifluoromethylphenyl-N^1-biguanido)-hexane] | number of test runs in which microorganism growth was observed ([6]; contact time 2.5 min): 2; number of test runs in which microorganism growth was observed ([6]; contact time 5.0 min): 1; number of test runs in which microorganism growth was observed ([6]; contact time 10.0 min): 0; number of test runs in which microorganism growth was observed ([6]; contact time 15.0 min): 0; antiplaque activity [5]: superior antiplaque activity at lower concentrations; MIC [7]: 6.25 µg/mL (≈ 10.9 µM); MIC [8]: 25 µg/mL (≈ 43.7 µM); MIC [9]: 200 µg/mL (≈ 349 µM); MIC [10]: 12.5 µg/mL (≈ 21.8 µM); MIC [11]: 25 µg/mL (≈ 43.7 µM); MIC [12]: 1.56 µg/mL (≈ 2.72 µM); MIC [13]: 1.56 µg/mL (≈ 2.72 µM); MIC [14]: 1.56 µg/mL (≈ 2.72 µM); MIC [15]: 50 µg/mL (≈ 87.3 µM); MIC [16]: 1.56 µg/mL (≈ 2.72 µM); MIC [17]: 3.13 µg/mL (≈ 5.47 µM); MIC [18]: 1.56 µg/mL (≈ 2.72 µM); MIC ([1]; Mueller-Hinton agar, listed as n = 6 (m-position)): 25.0 µg/mL (≈ 43.7 µM)
10 | 12.5 (≈ 22.4 µM) | 3.13 (≈ 5.6 µM) | 0.78 (≈ 1.4 µM) | 6.25 (≈ 11.2 µM) | N=C(NCCCCCNC(=N)NC(=N)Nc1cccc(C(F)(F)F)c1)NC(=N)Nc1cccc(C(F)(F)F)c1 [n = 5 (m-position)] | –
11 | 200 (≈ 387 µM) | 12.5 (≈ 24.2 µM) | 25 (≈ 48.4 µM) | 50 (≈ 96.8 µM) | N=C(NCCNC(=N)NC(=N)Nc1ccc(C(F)(F)F)cc1)NC(=N)Nc1ccc(C(F)(F)F)cc1 [n = 2 (p-position)] | –
12 | – | – | – | – | N=C(NCCCCCCNC(=N)NC(=N)NC12CC3CC(CC(C3)C1)C2)NC(=N)NC12CC3CC(CC(C3)C1)C2 [bis-1-adamanthyl-substituted derivatives] | antiplaque activity [5]: at the same level as chlorhexidin or better
13 | – | – | – | – | N=C(NCCCCCCNC(=N)NC(=N)NC1CCCCC1)NC(=N)NC1CCCCC1 [bis-cyclohexyl-substituted] | antiplaque activity [5]: at the same level as chlorhexidin or better
14 | 25 (≈ 41.6 µM) | 1.56 (≈ 2.6 µM) | 1.56 (≈ 2.6 µM) | 6.25 (≈ 10.4 µM) | N=C(NCCCCCCCCNC(=N)NC(=N)Nc1ccc(C(F)(F)F)cc1)NC(=N)Nc1ccc(C(F)(F)F)cc1 [n = 8 (p-position)] | –
